ChEMBL document CHEMBL1130202, “Biologically active heteroarotinoids exhibiting anticancer activity and decreased toxicity” (J Med Chem, 1997)
Calls of active or inactive are those of the source. No cut-off for these calls is given here.

What was measured:
Mus musculus [1] = organism: Mus musculus; assay: Enlarged lymph in gross pathological observations in mice with hypervitaminosis A at mid dose 1 with gross observations/total number of mice in group; 2/16; type: functional, organism-based
Mus musculus [2] = organism: Mus musculus; assay: Enlarged lymph in gross pathological observations in mice with hypervitaminosis A at mid dose 2 with gross observations/total number of mice in group; 8/16; type: functional, organism-based

`CC(/C=C/C=C(\C)c1ccc2c(c1)C(C)(C)CCO2)=C\C(=O)O` was tested, and the Activity (Mus musculus [1]) was “inactive”.

For `C/C(=C\c1ccc(C(=O)O)cc1)c1ccc2c(c1)C(C)(C)CCO2`, the Activity (Mus musculus [2]) was “Weak activity”.
